Results reported in patent US9687479B2, “Multisubstituted aromatic compounds as serine protease inhibitors” (VERSEON CORPORATION, priority 2013, dated 2017).

Target: Human thrombin (Homo sapiens (Human), UniProt P00734)
Assay: Thrombin protease activity inhibition assay (chromogenic substrate S-2238)
Format: biochemical
Conditions: 3 nM thrombin, 125 μM S-2238, 10 min pre-incubation, RT
Experimental: The thrombin activity reported herein (e.g., Table A) was obtained as follows. […] Thrombin was assayed in buffer containing 0.05 M Tris (pH 7.4), 0.015 M NaCl and 0.01% PEG-8000. The final concentration of enzyme used was 3 nM thrombin. […] All assays were performed in 96-well microtiter plates at room temperature (RT). […] Inhibitor IC50 values were determined by adding test compound as ten point, three-fold serial dilutions in buffer solution, as known in the art. The plate was read at 10 minutes after substrate addition. The IC50 was calculated by plotting the percent (%) inhibition against compound concentration and fitting the data to a constrained four parameter sigmoidal curve, as known in the art.

Row | SMILES | IC50 [nM]
1 | N#CCn1cccc(-c2cc(NCc3ccc(Cl)s3)[nH]n2)c1=O [Cmpd 60, 2-[3-(5-[(5-chlorothiophen-2-yl)methyl]amino-1H-pyrazol-3-yl)-2-oxo-1,2-dihydropyridin-1-yl]acetonitrile] | 10000 to 100000
2 | Cn1cccc(-c2cc(NCc3ccc(Cl)s3)n(C(=O)C3(C)COC3)n2)c1=O [Cmpd 148, 3-(5-[(5-chlorothiophen-2-yl)methyl]amino-1-[(3-methyloxetan-3-yl)carbonyl]-1H-pyrazol-3-yl)-1-methyl-1,2-dihydropyridin-2-one] | 100 to 1000
3 | O=C(c1cccs1)n1nc(-c2cccn(CCN3CCOCC3)c2=O)cc1NCc1ccc(Cl)s1 [Cmpd 192, 3-(5-[(5-chlorothiophen-2-yl)methyl]amino-1-[(thiophen-2-yl)carbonyl]-1H-pyrazol-3-yl)-1-[2-(morpholin-4-yl)ethyl]-1,2-dihydropyridin-2-one] | > 100000
4 | O=c1c(-c2cc(NCc3ccc(Cl)s3)[nH]n2)cccn1Cc1cccc(Cl)c1 [Cmpd 34, 1-[(3-chlorophenyl)methyl]-3-(5-[(5-chlorothiophen-2-yl)methyl]amino-1H-pyrazol-3-yl)-1,2-dihydropyridin-2-one] | 1000 to 10000
5 | O=C(c1ccsc1)n1nc(-c2cccn(Cc3ccco3)c2=O)cc1NCc1ccc(Cl)s1 [Cmpd 195, 3-(5-[(5-chlorothiophen-2-yl)methyl]amino-1-[(thiophen-3-yl)carbonyl]-1H-pyrazol-3-yl)-1-(furan-2-ylmethyl)-1,2-dihydropyridin-2-one] | < 100
6 | CC1(C(=O)n2nc(-c3cccn(Cc4cccnn4)c3=O)cc2NCc2ccc(Cl)s2)CCOCC1 [Cmpd 152, 3-(5-[(5-chlorothiophen-2-yl)methyl]amino-1-[(4-methyloxan-4-yl)carbonyl]-1H-pyrazol-3-yl)-1-(pyridazin-3-ylmethyl)-1,2-dihydropyridin-2-one] | < 100
7 | COc1ccccc1C(=O)n1nc(-c2cccn(CC(=O)OC(C)(C)C)c2=O)cc1NCc1ccc(Cl)s1 [Cmpd 262, tert-butyl 2-[3-(5-[(5-chlorothiophen-2-yl)methyl]amino-1-[(2-methoxyphenyl)carbonyl]-1H-pyrazol-3-yl)-2-oxo-1,2-dihydropyridin-1-yl]acetate] | < 100
8 | COCCn1cccc(-c2cc(NCc3ccc(Cl)s3)n(C(=O)C(C)(C)C)n2)c1=O [Cmpd 75, 3-(5-[(5-chlorothiophen-2-yl)methyl]amino-1-(2,2-dimethylpropanoyl)-1H-pyrazol-3-yl)-1-(2-methoxyethyl)-1,2-dihydropyridin-2-one] | < 100
9 | O=C(c1cccc2c1OCCO2)n1nc(-c2cccn(Cc3ccncc3)c2=O)cc1NCc1ccc(Cl)s1 [Cmpd 115, 3-(5-[(5-chlorothiophen-2-yl)methyl]amino-1-[(2,3-dihydro-1,4-benzodioxin-5-yl)carbonyl]-1H-pyrazol-3-yl)-1-(pyridin-4-ylmethyl)-1,2-dihydropyridin-2-one] | < 100
10 | CN(C)c1cc(-c2cccn(Cc3ccccn3)c2=O)nn1C(=O)c1ccco1 [Cmpd 240, 3-[5-(dimethylamino)-1-[(furan-2-yl)carbonyl]-1H-pyrazol-3-yl]-1-(pyridin-2-ylmethyl)-1,2-dihydropyridin-2-one] | > 100000
11 | O=C(c1cccs1)n1nc(-c2cccn(Cc3ccsc3)c2=O)cc1NCc1ccc(Cl)s1 [Cmpd 191, 3-(5-[(5-chlorothiophen-2-yl)methyl]amino-1-[(thiophen-2-yl)carbonyl]-1H-pyrazol-3-yl)-1-(thiophen-3-ylmethyl)-1,2-dihydropyridin-2-one] | < 100
12 | O=C(c1ccccc1Cl)n1nc(-c2cccn(CCN3CCOCC3)c2=O)cc1NCc1ccc(Cl)s1 [Cmpd 252, 3-1-[(2-chlorophenyl)carbonyl]-5-[(5-chlorothiophen-2-yl)methyl]amino-1H-pyrazol-3-yl-1-[2-(morpholin-4-yl)ethyl]-1,2-dihydropyridin-2-one] | < 100
13 | COCCn1cccc(-c2cc(NCc3ccc(Cl)s3)n(C(=O)c3ccoc3)n2)c1=O [Cmpd 171, 3-(5-[(5-chlorothiophen-2-yl)methyl]amino-1-[(furan-3-yl)carbonyl]-1H-pyrazol-3-yl)-1-(2-methoxyethyl)-1,2-dihydropyridin-2-one] | > 100000
14 | CC1(C(=O)n2nc(-c3cccn(Cc4ccccn4)c3=O)cc2NCc2ccc(Cl)s2)CCOCC1 [Cmpd 153, 3-(5-[(5-chlorothiophen-2-yl)methyl]amino-1-[(4-methyloxan-4-yl)carbonyl]-1H-pyrazol-3-yl)-1-(pyridin-2-ylmethyl)-1,2-dihydropyridin-2-one] | < 100
15 | Nc1ccccc1C(=O)n1nc(-c2ccc[nH]c2=O)cc1NCc1ccc(Cl)s1 [Cmpd 241, 3-1-[(2-aminophenyl)carbonyl]-5-[(5-chlorothiophen-2-yl)methyl]amino-1H-pyrazol-3-yl-1,2-dihydropyridin-2-one] | < 100
16 | COc1ccccc1C(=O)n1nc(-c2cccn(C)c2=O)cc1NCc1ccc(Cl)s1 [Cmpd 147, 3-(5-[(5-chlorothiophen-2-yl)methyl]amino-1-[(2-methoxyphenyl)carbonyl]-1H-pyrazol-3-yl)-1-methyl-1,2-dihydropyridin-2-one] | < 100
17 | COc1ccccc1C(=O)n1nc(-c2cccn(Cc3ncccn3)c2=O)cc1NCc1ccc(Cl)s1 [Cmpd 142, 3-(5-[(5-chlorothiophen-2-yl)methyl]amino-1-[(2-methoxyphenyl)carbonyl]-1H-pyrazol-3-yl)-1-(pyrimidin-2-ylmethyl)-1,2-dihydropyridin-2-one] | < 100

Next, values leading:

Row | IC50 [nM] | SMILES
18 | < 100 | COc1ccccc1C(=O)n1nc(-c2cccn(Cc3cccc(Cl)c3)c2=O)cc1NCc1ccc(Cl)s1 [Cmpd 32, 1-[(3-chlorophenyl)methyl]-3-(5-[(5-chlorothiophen-2-yl)methyl]amino-1-[(2-methoxyphenyl)carbonyl]-1H-pyrazol-3-yl)-1,2-dihydropyridin-2-one]
19 | < 100 | CC(C)(C)C(=O)n1nc(-c2cccn(Cc3cccs3)c2=O)cc1NCc1ccc(Cl)s1 [Cmpd 86, 3-(5-[(5-chlorothiophen-2-yl)methyl]amino-1-(2,2-dimethylpropanoyl)-1H-pyrazol-3-yl)-1-(thiophen-2-ylmethyl)-1,2-dihydropyridin-2-one]
20 | < 100 | COCC(C)(C)C(=O)n1nc(-c2cccn(Cc3ccccc3)c2=O)cc1NCc1ccc(Cl)s1 [Cmpd 44, 1-benzyl-3-(5-[(5-chlorothiophen-2-yl)methyl]amino-1-(3-methoxy-2,2-dimethylpropanoyl)-1H-pyrazol-3-yl)-1,2-dihydropyridin-2-one]
21 | < 100 | COCCn1cccc(-c2cc(NCc3ccc(Cl)s3)n(C(=O)c3ccccc3OC)n2)c1=O [Cmpd 133, 3-(5-[(5-chlorothiophen-2-yl)methyl]amino-1-[(2-methoxyphenyl)carbonyl]-1H-pyrazol-3-yl)-1-(2-methoxyethyl)-1,2-dihydropyridin-2-one]
22 | < 100 | O=C(c1ccccc1)n1nc(-c2cccn(Cc3cccnc3)c2=O)cc1NCc1ccc(Cl)s1 [Cmpd 67, 3-(1-benzoyl-5-[(5-chlorothiophen-2-yl)methyl]amino-1H-pyrazol-3-yl)-1-(pyridin-3-ylmethyl)-1,2-dihydropyridin-2-one]
23 | < 100 | COc1ccc(C(=O)n2nc(-c3cccn(Cc4cccnn4)c3=O)cc2NCc2ccc(Cl)s2)c(OC)c1 [Cmpd 124, 3-(5-[(5-chlorothiophen-2-yl)methyl]amino-1-[(2,4-dimethoxyphenyl)carbonyl]-1H-pyrazol-3-yl)-1-(pyridazin-3-ylmethyl)-1,2-dihydropyridin-2-one]
24 | < 100 | CC(C)(C)C(=O)n1nc(-c2cccn(Cc3ccc(Cl)cc3)c2=O)cc1NCc1ccc(Cl)s1 [Cmpd 35, 1-[(4-chlorophenyl)methyl]-3-(5-[(5-chlorothiophen-2-yl)methyl]amino-1-(2,2-dimethylpropanoyl)-1H-pyrazol-3-yl)-1,2-dihydropyridin-2-one]
25 | < 100 | COc1ccc(C(=O)n2nc(-c3cccn(Cc4cccs4)c3=O)cc2NCc2ccc(Cl)s2)c(OC)c1 [Cmpd 129, 3-(5-[(5-chlorothiophen-2-yl)methyl]amino-1-[(2,4-dimethoxyphenyl)carbonyl]-1H-pyrazol-3-yl)-1-(thiophen-2-ylmethyl)-1,2-dihydropyridin-2-one]
26 | < 100 | O=C(c1ccco1)n1nc(-c2cccn(Cc3ncccn3)c2=O)cc1NCc1ccc(Cl)s1 [Cmpd 167, 3-(5-[(5-chlorothiophen-2-yl)methyl]amino-1-[(furan-2-yl)carbonyl]-1H-pyrazol-3-yl)-1-(pyrimidin-2-ylmethyl)-1,2-dihydropyridin-2-one]
27 | < 100 | CC(C)(C)C(=O)n1nc(-c2cccn(CCc3ccccc3)c2=O)cc1NCc1ccc(Cl)s1 [Cmpd 76, 3-(5-[(5-chlorothiophen-2-yl)methyl]amino-1-(2,2-dimethylpropanoyl)-1H-pyrazol-3-yl)-1-(2-phenylethyl)-1,2-dihydropyridin-2-one]
28 | < 100 | COc1ccccc1C(=O)n1nc(-c2cccn(Cc3ccsc3)c2=O)cc1NCc1ccc(Cl)s1 [Cmpd 144, 3-(5-[(5-chlorothiophen-2-yl)methyl]amino-1-[(2-methoxyphenyl)carbonyl]-1H-pyrazol-3-yl)-1-(thiophen-3-ylmethyl)-1,2-dihydropyridin-2-one]
29 | < 100 | O=C(c1ccco1)n1nc(-c2cccn(Cc3ccco3)c2=O)cc1NCc1ccc(Cl)s1 [Cmpd 161, 3-(5-[(5-chlorothiophen-2-yl)methyl]amino-1-[(furan-2-yl)carbonyl]-1H-pyrazol-3-yl)-1-(furan-2-ylmethyl)-1,2-dihydropyridin-2-one]
30 | < 100 | O=C(c1ccoc1)n1nc(-c2cccn(CCN3CCOCC3)c2=O)cc1NCc1ccc(Cl)s1 [Cmpd 181, 3-(5-[(5-chlorothiophen-2-yl)methyl]amino-1-[(furan-3-yl)carbonyl]-1H-pyrazol-3-yl)-1-[2-(morpholin-4-yl)ethyl]-1,2-dihydropyridin-2-one]
